Experimental data taken from patent US20230181673A1, “TRI-PEPTIDES AND TREATMENT OF METABOLIC, CARDIOVASCULAR AND INFLAMMATORY DISORDERS” (Diapin Therapeutics, LLC, priority 2018, published 2023).
Non-standard residues stand in square brackets, D forms with d. No end group written: not given here.

What was measured:
hepatic gene expression = experiment: qPCR analysis of hepatic gene expression in WD-fed apoE−/− mice; format: in vivo; conditions: for Hepatic expression of CCL2 / Hepatic expression of TNFα / Hepatic expression of key genes regulating FAO (PPARα, PNPLA2, CACT, CPT1a, ACADL): apoE−/− mice on WD, qPCR (FIG. 16D)
From the text: (§1) Eight-week-old male apolipoprotein E-deficient (apoE−/−) mice (B6.129P2-Apoetm1Unc/J, Stock No.: 002052) were obtained from Jackson Laboratories. Mice were fed Western diet (WD, 42% of calories from fat and 0.2% cholesterol by weight, Envigo TD.88137). After one week of WD feeding, blood was carefully collected from the facial vein to determine baseline plasma levels of total cholesterol (TC). […] All mice were maintained on a 12-hour light/dark cycle and had ad libitum access to food and water. Body weight and food intake were measured every one and three weeks, respectively
(§2) Total RNA from liver or adipose tissue samples was extracted using QIAGEN's RNeasy kits (QIAGEN). RNA was reverse-transcribed into cDNA with SuperScript III and random primers (Invitrogen). Specific transcript levels were assessed by a real-time PCR system (Bio-Rad) using IQ SYBR Green Supermix (Bio-Rad) and the ΔΔCt threshold cycle method of normalization. Gene expression levels were normalized to glyceraldehyde 3-phosphate dehydrogenase (GAPDH). Primer pairs used for qPCR were obtained from Integrated DNA Technologies and are listed below:
as §2, with “from mouse” for “from”, “liver” for “liver or adipose tissue”, “glycerldehyde” for “glyceraldehyde”, “(GAPDH).” for “(GAPDH). Primer pairs used for qPCR were obtained from Integrated DNA Technologies and are listed below:”

NASH-diet-induced HS = format: in vivo, mice; conditions: endpoint
Experimental: Frozen section processing was used for Oil Red O (ORO) staining. Formalin-fixed liver samples were cryoprotected in 20% sucrose at 4° C. overnight, blotted, then liquid nitrogen-snap frozen in O.C.T. Compound (Tissue-Tek, Cat #4583) and stored at −80° C. until ready for cryosectioning. Prior to sectioning, frozen blocks were brought up to about −20° C., then sectioned at 5 μm on a Cryotome SME (Thermo-Shandon, Cat #77200227). Slides were stored at −80° C. until stained. Prior to staining, liver slides were thawed to room temperature for 30 min. Slides were post-fixed in 10% Neutral Buffered Formalin for 20 min, rinsed in DDW, followed by rinsing in 60% Isopropanol before being placed in working ORO-isopropanol stain (Rowley Biochemical Inc., H-503-1B) for 5 min. Slides were then rinsed in 60% Isopropanol followed by three changes of DDW. Then, slides were nuclear counterstained in Harris Hematoxylin and mounted in Aqua-Mount (Lerner Laboratories, Cat #13800) aqueous mounting media.
(§3) Livers were rapidly removed from the euthanized mice, snap-frozen with liquid nitrogen, and kept at −80° C. Frozen liver samples (100 mg) were homogenized in PBS and centrifuged (14,000 RPM, 20 min). The supernatants were collected and analyzed for protein content using Bio-Rad Bradford assay. To assess liver lipid composition, lipids were extracted from the supernatants using hexane (≥99%, Sigma-Aldrich 32293) and isopropanol (≥99.5%, Fisher Scientific A428-4) at a 3:2 ratio (v:v), and the hexane phase was left for evaporation for 48 h. […] Liver diacylglycerols (DAG) were determined using ELISA Kit (Aviva Systems Biology, OKEH02607), according to the manufacturer's instructions. Hepatic TG, TC and DAG data were normalized to protein levels.
Mice fed CD and administered H2O served as control.

[1] = system: WD-induced hepatic steatosis; experiment: Liver H&E/ORO histology and hepatic lipid (TG, TC) quantification in WD-fed apoE−/− mice; format: in vivo; conditions: for Hepatic steatosis by H&E staining / HS by histology and lipid quantification: apoE−/− mice on WD; for Hepatic steatosis by H&E staining: 12 weeks; for HS by histology and lipid quantification: endpoint (FIG. 16A-C); for Hepatic TC, decreased by / Hepatic TG, decreased by: extracted hepatic lipids, endpoint, vs WD+H2O
From the text: as §1
Histology processing was performed by the In Vivo Animal Core (IVAC) Histology Laboratory within the Unit for Laboratory Animal Medicine (ULAM) of the University of Michigan. Formalin-fixed tissues were processed through graded alcohols and cleared with xylene followed by infiltration with molten paraffin using an automated VIP5 or VIP6 tissue processor (TissueTek, Sakura-Americas). Following paraffin embedding using a Histostar Embedding Station (ThermoFisher Scientific), tissues were sectioned on a M 355S rotary microtome (ThermoFisher Scientific) at 4 μm thickness and mounted on glass slides. Following deparaffinization and hydration with xylene and graded alcohols, slides were stained for hematoxylin and eosin (H&E) using Harris hematoxylin (ThermoFisher Scientific, Cat #842), differentiated with Clarifier (ThermoFisher Scientific, Cat #7401), blued with bluing reagent (ThermoFisher Scientific, Cat #7301), stained with eosin Y, alcoholic (ThermoFisher Scientific, Cat #832), then dehydrated and cleared through graded alcohols and xylene and coverslipped with Micromount (Leica cat #3801731) using a Leica CV5030 automatic coverslipper. Immunohistochemical staining was performed on an IntelliPATH FLX automated immunohistochemical stainer (Biocare Medical, Cat #IPS0001US) and included blocking for endogenous peroxidases and non-specific binding, detection using a horseradish peroxidase biotin-free polymer based commercial detection system, disclosure with diaminobenzidine chromogen, and nuclear counterstaining with hematoxylin. Specific to F4/80, (Bio-Rad ABD Serotec, Cat #MCA497), the rat monoclonal primary antibody (clone CI:A3-1) was diluted to 1:400 in DaVinci Diluent (Biocare Medical, Cat #PD900) and incubated for 60 min followed by detection using Rat-on-Mouse HRP-Polymer, (Biocare Medical, Cat #RT517) 2-step probe-polymer incubation for 10 and 30 min respectively.
Livers were rapidly removed from the euthanized mice and kept at −80° C. Frozen liver samples (approximately 100 mg) were homogenized in PBS and centrifuged (14,000 RPM, 20 min). The supernatants were collected and analyzed for protein content by the Bio-Rad Bradford assay. To assess liver lipid composition, lipids were extracted from the supernatants using hexane ([…], 32293, Sigma-Aldrich) and isopropanol (≥99.5%, A426-4, Fisher Scientific) at a 3:2 ratio (v:v), and the hexane phase was left for evaporation for 48 h. The amount of liver TG or TC was determined spectrophotometrically using commercially available kits (Wako Chemicals). Data were normalized to protein levels and presented as μg TG or TC/mg protein.
as §3

atherosclerotic lesions = experiment: Analysis of atherosclerotic lesions (Oil Red O, en face aorta) in WD-fed apoE−/− mice; format: in vivo; conditions: apoE−/− mice on WD, 12 weeks; vs WD+H2O
From the text: as §1
After collection of blood, the mice were perfused with 20 mL of saline solution through the heart, followed by 20 mL of 37% formalin. The mice were fixed with formalin and the whole aortic tree was dissected under a surgical microscope. Next, the aortic trees were stained with Oil Red O solution (0.2% Oil Red O (w/v) in 3.5:1 of methanol:1N NaOH) for 50 min, followed by 70% ethanol for 30 min. Aortic trees were then kept in DDW. The aortic trees were then cleared of adhering adipose and connective tissues, and longitudinally opened with Vannas scissors to expose the atherosclerotic lesions. Images of whole aortic trees were obtained using a digital camera, and the percentage of the plaque area stained by Oil Red O with respect to the total luminal surface area was quantified with ImageJ analysis software (http://imagej.nih.gov/ij/).

Compound	Hepatic expression of CCL2 (hepatic gene expression)	Hepatic expression of TNFα (hepatic gene expression)	Hepatic expression of key genes regulating FAO (PPARα, PNPLA2, CACT, CPT1a, ACADL) (hepatic gene expression)	Hepatic expression of ABCG5 and ABCG8 (hepatic gene expression; liver, endpoint, qPCR)	Hepatic expression of AMPKα1 and PPARα (hepatic gene expression; liver, endpoint, qPCR)	Hepatic expression of PNPLA2, CPT1a, CACT, ACADI and UCP2 (hepatic gene expression; liver, endpoint, qPCR)	HS by ORO and lipid quantification (NASH-diet-induced HS)	Liver diacylglycerols (DAG) (NASH-diet-induced HS; 0.5 mg/g/day DT-109)	Hepatic steatosis by H&E staining [1]	HS by histology and lipid quantification [1]	Hepatic TC, decreased by [1]	Hepatic TG, decreased by [1]	Total atherosclerotic plaques (en face aortic lesions, Oil Red O), reduction by (atherosclerotic lesions)	Hepatic GLUT1 expression (hepatic gene expression; liver, endpoint, qPCR)	Hepatic expression of LDLR (hepatic gene expression; liver, endpoint, qPCR)	Hepatic expression of genes regulating gluconeogenesis (G6pc, PCK1 and FBP1) (hepatic gene expression; liver, endpoint, qPCR)	Hepatic expression of genes regulating glucose uptake (GLUT1, GLUT2 and GLUT4) (hepatic gene expression; liver, endpoint, qPCR)	MCP1 expression in the liver (hepatic gene expression; liver, endpoint, qPCR)
Gly-Gly-Leu [DT-109]	downregulation	without significant changes	upregulation	significantly increased	significantly induced	significantly upregulated	significantly attenuated	significantly reduced	abolished	reduced HS	71%	73%	62%	–	–	–	–	–
Gly-Gly-[dL] [DT-110]	–	–	–	significantly increased	significantly induced	significantly upregulated	–	–	abolished	–	63%	68%	49%	markedly induced	significant upregulation	–	–	–
CC(C)C[C@H](N)C(=O)O [leucine]	–	–	–	–	–	–	marked HS	–	marked microvesicular and macrovesicular steatosis	–	no significant effects	no significant effects	but not in mice treated with leucine	–	–	–	–	–
NCC(=O)O [glycine, reference compound]	downregulation	without significant changes	upregulation	significantly increased	significantly induced	significantly upregulated	significantly attenuated	–	abolished	reduced HS	76%	74%	48%	–	–	no significant change	upregulated	suppressed
